Test results as given in PMC6563099, “Novel Thienopyrimidine Derivative, RP-010, Induces β-Catenin Fragmentation and Is Efficacious against Prostate Cancer Cells” (Cancers, 2019).

Key:
Assay type in all cases: cell-based
[1] = system: PC-3; test: MTT cytotoxicity assay, PC-3 prostate cancer cells; settings: Homo sapiens, PC-3, MTT assay; means ± SDs of three independent experiments; read-out: IC50 ± SD, Prostate Cancer Cells, PC-3
Experimental: (§1) All the cells were cultured as adherent monolayers in culture flasks, and were used to determine the anti-cancer efficacy of RP-010. DMEM supplemented with 4.5 g of glucose, 10% fetal bovine serum (FBS) and 1% penicillin/streptomycin, was used to augment cell growth. Finally, the cells were incubated and grown in a humidified incubator containing 5% CO2 at 37 °C [50]. […] Cells were obtained from frozen stocks and cell passaging (up to P4) was performed at 80% cell confluency, using PBS and trypsin + 2.2-mM EDTA.
(§2) MTT assays were used to determine the cytotoxicity of the RP compounds, to PC cell lines, as previously described.

[2] = system: CHO; test: MTT cytotoxicity assay, CHO cells; settings: Cricetulus griseus, Chinese hamster ovarian cell line, means ± SDs of three independent experiments, read-out: IC50 ± SD, Non-Prostate Cells, CHO
Experimental: as §1, §2

[3] = system: DU145; test: MTT cytotoxicity assay, DU145 prostate cancer cells; settings: Homo sapiens, DU-145, MTT assay; means ± SDs of three independent experiments; read-out: IC50 ± SD, Prostate Cancer Cells, DU145
Experimental: as §1, §2

[4] = system: CRL-1459; test: MTT cytotoxicity assay, CRL-1459 normal colon epithelial cells; settings: Homo sapiens, normal colon epithelial cell line, means ± SDs of three independent experiments, read-out: IC50 ± SD, Non-Prostate Cells, CRL-1459
Experimental: as §1, §2

SMILES | IC50 [1] | IC50 [2] | IC50 [3] | IC50 [4]
O=c1[nH]c(-c2ccccc2)nc2sc3c(c12)CCCC3 [RP1] | > 100 µM | > 100 µM | > 100 µM | > 100 µM
O=c1[nH]c(-c2ccc(F)cc2)nc2sc3c(c12)CCCC3 [RP2] | > 100 µM | > 100 µM | > 100 µM | > 100 µM
O=c1[nH]c(-c2ccc(Cl)cc2)nc2sc3c(c12)CCCC3 [RP3] | > 100 µM | > 100 µM | > 100 µM | > 100 µM
O=c1[nH]c(-c2ccc(Cl)cc2Cl)nc2sc3c(c12)CCCC3 [RP4] | 73.4 ± 3.1 µM | > 100 µM | > 100 µM | > 100 µM
O=c1[nH]c(-c2cccc([N+](=O)[O-])c2)nc2sc3c(c12)CCCC3 [RP5] | > 100 µM | > 100 µM | > 100 µM | > 100 µM
O=c1[nH]c(-c2ccc([N+](=O)[O-])cc2)nc2sc3c(c12)CCCC3 [RP6] | > 100 µM | > 100 µM | > 100 µM | > 100 µM
Cc1ccc(-c2nc3sc4c(c3c(=O)[nH]2)CCCC4)cc1 [RP7] | > 100 µM | > 100 µM | > 100 µM | > 100 µM
N#Cc1ccc(-c2nc3sc4c(c3c(=O)[nH]2)CCCC4)cc1 [RP8] | 6.4 ± 0.5 µM | > 100 µM | > 100 µM | > 100 µM
COc1cccc(-c2nc3sc4c(c3c(=O)[nH]2)CCCC4)c1 [RP9] | 2.8 ± 1.1 µM | > 100 µM | > 100 µM | > 100 µM
COc1ccc(-c2nc3sc4c(c3c(=O)[nH]2)CCCC4)cc1OC [RP11] | 6.6 ± 0.7 µM | > 100 µM | 2.7 ± 0.5 µM | > 100 µM
COc1cc(OC)cc(-c2nc3sc4c(c3c(=O)[nH]2)CCCC4)c1 [RP12] | 6.9 ± 1 µM | > 100 µM | > 100 µM | > 100 µM
COc1cccc(-c2nc3sc4c(c3c(=O)[nH]2)CCCC4)c1O [RP13] | > 100 µM | > 100 µM | > 100 µM | > 100 µM
